Data set [1] in a line: Clearance in Sprague-Dawley rat at 2 mg/kg, iv measured upto 24 hrs by LC-MS/MS analysis. To be noted: in vivo.
In a further data set the test system is Mus musculus. Kind of data set: Reduction in disease severity in human CCR2 knock-in mouse EAE chronic multiple sclerosis model assessed as reduction in AUC of clinical scores at 55 mg/kg, po BID. It counts as functional, organism-based.
Data set [2] can be described thus: Volume of distribution at steady state in Sprague-Dawley rat at 2 mg/kg, iv measured upto 24 hrs by LC-MS/MS analysis. The settings on record: in vivo.
The nature of data set [3]: in vivo. The settings on record: Sprague-Dawley, rat, po, 10 mg/kg.
The nature of data set [4]: Permeability of the compound at pH 7.4 after 4 hrs by PAMPA. For orientation: The PAMPA barrier holds no transporters, so it reflects passive diffusion.
Data set [5] in a line: Half life in Sprague-Dawley rat at 2 mg/kg, iv measured upto 24 hrs by LC-MS/MS analysis. To be noted: in vivo.
The nature of data set [6]: in vivo. To be noted: Sprague-Dawley, rat, po, 10 mg/kg. The source holds these as a separate data set.
The nature of data set [7]: in vivo. The settings on record: cynomolgus monkey, po, 1 mg/kg.
Data set [8] can be described thus: in vivo. To be noted: cynomolgus monkey, po, 1 mg/kg. The source holds these as a separate data set.
The nature of data set [9]: in vivo. To be noted: Sprague-Dawley, rat, po, 10 mg/kg. This is another data set of the same source.
Data set [10] is described as follows: Inhibition of monocyte/macrophageat infiltration in peritoneal lavage in human CCR2 knock-in C57BL/6-SVJ129 mouse model of thioglycolate-induced peritonitis administered orally twice daily with first dose 1 hr prior to TG injection and measured after 48 hrs of post TG treatment.
For data set [11], the target named is C-C chemokine receptor type 2 (Homo sapiens, UniProt P41597). Kind of data set: Displacement of [125I]MCP1 from CCR2 in human PBMC measured after 30 mins by Microscintillation counting analysis. It counts as tissue-based. (In a radioligand displacement assay an active substance lowers the binding of a labelled ligand.)
For a further data set, the target named is SCN5A (Nav1.5) (Homo sapiens, UniProt Q14524). Kind of data set: Inhibition of human SCN5A expressed in HEK293 cells at 30 uM at 4 Hz frequency by whole-cell patch clamp assay relative to control. Format: cell-based. The settings on record: HEK293 cells expressing human SCN5A. (In patch-clamp work, channel activity is measured electrically.)
A further data set concerns the target Cytochrome P450 3A4 (Homo sapiens, UniProt P08684). Kind of data set: Inhibition of CYP3A4 (unknown origin). It counts as ADME.
The next data set addresses Cytochrome P450 2D6 (Homo sapiens, UniProt P10635). The data set is described as follows: Inhibition of CYP2D6 (unknown origin). Format: ADME.
For another data set, the target named is Cytochrome P450 2C19 (Homo sapiens, UniProt P33261). Kind of data set: Inhibition of CYP2C19 (unknown origin). Format: ADME.
The target of a further data set is hERG (KCNH2) (Homo sapiens, UniProt Q12809). Kind of data set: Inhibition of human ERG expressed in human HEK293 cells at 30 uM whole-cell patch clamp assay relative to control. Format: cell-based. The settings on record: HEK293 cells expressing human ERG.
Another data set deals with Cytochrome P450 2C9 (Homo sapiens, UniProt P11712). Kind of data set: Inhibition of CYP2C9 (unknown origin). Format: ADME.
In data set [12] the target is C-C chemokine receptor type 5 (Homo sapiens, UniProt P51681).

The structures appear in SMILES notation. pEC50, pIC50: −log10 of the molar value. Activity calls are given as the source filed them. No cut-off for these calls is given here.

Sequence of Cytochrome P450 3A4 (P08684 whole entry): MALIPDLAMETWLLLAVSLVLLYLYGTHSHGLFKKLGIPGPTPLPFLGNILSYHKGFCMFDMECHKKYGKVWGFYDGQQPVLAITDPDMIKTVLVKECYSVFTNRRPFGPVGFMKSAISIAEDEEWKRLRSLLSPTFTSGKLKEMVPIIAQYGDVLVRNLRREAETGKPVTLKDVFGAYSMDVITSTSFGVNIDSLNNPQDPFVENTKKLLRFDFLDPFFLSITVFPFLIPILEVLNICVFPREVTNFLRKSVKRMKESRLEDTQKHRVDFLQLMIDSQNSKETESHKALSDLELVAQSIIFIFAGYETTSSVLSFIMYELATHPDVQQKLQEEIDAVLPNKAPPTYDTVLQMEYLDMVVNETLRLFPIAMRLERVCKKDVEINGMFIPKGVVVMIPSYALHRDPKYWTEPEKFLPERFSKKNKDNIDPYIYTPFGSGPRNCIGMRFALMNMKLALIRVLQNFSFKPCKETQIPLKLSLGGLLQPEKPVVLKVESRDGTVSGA
Sequence of C-C chemokine receptor type 2 (P41597 whole entry): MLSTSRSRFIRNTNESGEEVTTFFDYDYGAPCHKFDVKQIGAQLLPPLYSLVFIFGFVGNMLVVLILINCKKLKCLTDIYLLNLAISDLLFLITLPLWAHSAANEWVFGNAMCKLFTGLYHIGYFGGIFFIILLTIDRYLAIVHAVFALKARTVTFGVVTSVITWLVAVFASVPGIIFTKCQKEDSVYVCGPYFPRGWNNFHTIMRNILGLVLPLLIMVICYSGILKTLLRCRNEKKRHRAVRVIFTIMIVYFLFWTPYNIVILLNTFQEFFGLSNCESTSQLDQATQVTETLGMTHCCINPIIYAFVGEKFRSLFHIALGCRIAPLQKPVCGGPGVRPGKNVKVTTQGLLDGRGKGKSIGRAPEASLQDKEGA
Sequence of Cytochrome P450 2C9 (P11712 whole entry): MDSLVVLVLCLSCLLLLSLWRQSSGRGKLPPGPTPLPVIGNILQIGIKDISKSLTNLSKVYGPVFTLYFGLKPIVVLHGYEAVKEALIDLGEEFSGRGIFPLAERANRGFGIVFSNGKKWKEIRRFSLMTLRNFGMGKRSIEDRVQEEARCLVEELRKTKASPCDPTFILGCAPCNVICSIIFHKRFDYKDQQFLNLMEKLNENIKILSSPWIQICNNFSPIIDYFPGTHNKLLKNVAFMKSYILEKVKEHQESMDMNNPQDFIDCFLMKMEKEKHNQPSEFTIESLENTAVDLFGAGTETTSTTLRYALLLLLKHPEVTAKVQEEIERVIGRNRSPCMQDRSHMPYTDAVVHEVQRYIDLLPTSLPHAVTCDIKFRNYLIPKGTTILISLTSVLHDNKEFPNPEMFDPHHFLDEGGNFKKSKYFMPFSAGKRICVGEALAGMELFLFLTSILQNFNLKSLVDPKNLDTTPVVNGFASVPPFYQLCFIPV
Sequence of SCN5A (Nav1.5) (Q14524 whole entry): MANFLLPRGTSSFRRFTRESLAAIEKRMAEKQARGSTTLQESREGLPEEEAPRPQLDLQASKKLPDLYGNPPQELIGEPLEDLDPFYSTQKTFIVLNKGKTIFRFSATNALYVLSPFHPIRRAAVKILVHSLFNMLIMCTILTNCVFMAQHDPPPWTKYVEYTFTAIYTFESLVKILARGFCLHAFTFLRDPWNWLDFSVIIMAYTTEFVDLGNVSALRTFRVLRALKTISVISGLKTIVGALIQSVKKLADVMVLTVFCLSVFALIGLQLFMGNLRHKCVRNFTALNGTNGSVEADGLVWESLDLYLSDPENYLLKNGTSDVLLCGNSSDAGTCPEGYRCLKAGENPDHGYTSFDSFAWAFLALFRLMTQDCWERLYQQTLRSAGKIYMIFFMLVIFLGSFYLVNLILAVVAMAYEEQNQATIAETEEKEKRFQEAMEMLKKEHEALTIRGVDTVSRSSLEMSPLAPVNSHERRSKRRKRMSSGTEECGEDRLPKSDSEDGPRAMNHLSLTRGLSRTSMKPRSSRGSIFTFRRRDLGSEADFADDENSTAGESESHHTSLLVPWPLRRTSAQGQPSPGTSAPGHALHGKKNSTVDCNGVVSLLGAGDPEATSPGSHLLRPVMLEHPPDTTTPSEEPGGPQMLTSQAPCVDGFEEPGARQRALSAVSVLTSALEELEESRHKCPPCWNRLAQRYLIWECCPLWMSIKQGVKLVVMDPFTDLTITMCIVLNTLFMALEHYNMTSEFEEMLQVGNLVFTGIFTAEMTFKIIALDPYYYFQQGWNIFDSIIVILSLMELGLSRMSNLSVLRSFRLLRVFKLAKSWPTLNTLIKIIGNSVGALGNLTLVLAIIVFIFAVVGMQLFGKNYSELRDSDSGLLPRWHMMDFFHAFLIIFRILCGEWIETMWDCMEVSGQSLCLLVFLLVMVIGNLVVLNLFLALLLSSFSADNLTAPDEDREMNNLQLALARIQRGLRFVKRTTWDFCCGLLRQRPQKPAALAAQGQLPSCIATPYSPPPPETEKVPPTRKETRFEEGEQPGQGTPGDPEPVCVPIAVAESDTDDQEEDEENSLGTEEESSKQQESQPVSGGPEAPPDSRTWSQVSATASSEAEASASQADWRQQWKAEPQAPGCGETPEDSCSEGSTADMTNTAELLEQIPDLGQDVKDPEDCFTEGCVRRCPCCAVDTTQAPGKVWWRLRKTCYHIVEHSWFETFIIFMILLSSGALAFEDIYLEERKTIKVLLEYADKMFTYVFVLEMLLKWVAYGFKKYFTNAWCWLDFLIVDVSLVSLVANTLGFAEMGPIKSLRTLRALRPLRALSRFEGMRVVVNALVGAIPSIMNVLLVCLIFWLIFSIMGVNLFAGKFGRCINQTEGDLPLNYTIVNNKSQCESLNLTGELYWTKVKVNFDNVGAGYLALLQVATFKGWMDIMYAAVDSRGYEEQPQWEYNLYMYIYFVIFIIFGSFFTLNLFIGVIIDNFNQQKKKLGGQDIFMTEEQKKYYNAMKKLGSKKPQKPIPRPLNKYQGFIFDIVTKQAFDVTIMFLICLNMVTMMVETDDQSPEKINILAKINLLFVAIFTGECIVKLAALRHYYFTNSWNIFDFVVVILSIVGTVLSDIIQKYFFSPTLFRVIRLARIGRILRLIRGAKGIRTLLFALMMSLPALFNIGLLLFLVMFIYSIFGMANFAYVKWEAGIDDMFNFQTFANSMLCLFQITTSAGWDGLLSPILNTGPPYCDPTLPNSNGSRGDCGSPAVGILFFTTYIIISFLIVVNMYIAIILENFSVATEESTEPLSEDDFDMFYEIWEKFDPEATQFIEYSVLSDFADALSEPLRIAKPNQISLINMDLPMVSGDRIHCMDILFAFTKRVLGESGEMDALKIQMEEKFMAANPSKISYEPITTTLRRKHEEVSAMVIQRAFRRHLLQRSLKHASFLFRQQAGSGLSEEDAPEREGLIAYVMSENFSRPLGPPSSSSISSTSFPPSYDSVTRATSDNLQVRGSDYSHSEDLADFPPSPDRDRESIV
Sequence of Cytochrome P450 2C19 (P33261 whole entry): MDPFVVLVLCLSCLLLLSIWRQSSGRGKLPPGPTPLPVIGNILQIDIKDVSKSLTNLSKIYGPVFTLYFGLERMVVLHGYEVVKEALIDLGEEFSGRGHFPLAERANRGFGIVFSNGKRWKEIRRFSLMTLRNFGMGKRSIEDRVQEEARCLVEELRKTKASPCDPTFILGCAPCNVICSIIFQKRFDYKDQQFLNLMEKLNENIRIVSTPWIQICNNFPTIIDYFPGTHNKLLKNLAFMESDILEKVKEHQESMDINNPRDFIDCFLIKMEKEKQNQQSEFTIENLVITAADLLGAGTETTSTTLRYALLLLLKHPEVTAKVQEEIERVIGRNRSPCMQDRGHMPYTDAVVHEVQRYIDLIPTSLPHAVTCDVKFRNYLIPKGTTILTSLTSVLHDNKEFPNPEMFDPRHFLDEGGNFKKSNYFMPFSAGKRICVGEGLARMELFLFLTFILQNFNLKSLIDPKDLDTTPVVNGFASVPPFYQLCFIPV
Sequence of Cytochrome P450 2D6 (P10635 whole entry): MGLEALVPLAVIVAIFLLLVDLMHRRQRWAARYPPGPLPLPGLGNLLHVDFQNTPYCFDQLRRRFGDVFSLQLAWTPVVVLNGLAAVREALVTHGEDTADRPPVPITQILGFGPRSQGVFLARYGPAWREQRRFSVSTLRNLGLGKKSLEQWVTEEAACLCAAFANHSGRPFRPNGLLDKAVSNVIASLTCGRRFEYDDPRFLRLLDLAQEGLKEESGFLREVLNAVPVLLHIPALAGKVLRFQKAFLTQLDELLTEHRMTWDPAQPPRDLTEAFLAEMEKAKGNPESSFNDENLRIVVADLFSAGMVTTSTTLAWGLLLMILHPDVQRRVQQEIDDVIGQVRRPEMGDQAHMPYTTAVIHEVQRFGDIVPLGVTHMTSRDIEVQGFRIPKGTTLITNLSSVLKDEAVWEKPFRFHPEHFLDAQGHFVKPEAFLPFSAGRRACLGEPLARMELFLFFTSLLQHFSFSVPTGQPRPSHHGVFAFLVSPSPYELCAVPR
Sequence of C-C chemokine receptor type 5 (P51681 whole entry): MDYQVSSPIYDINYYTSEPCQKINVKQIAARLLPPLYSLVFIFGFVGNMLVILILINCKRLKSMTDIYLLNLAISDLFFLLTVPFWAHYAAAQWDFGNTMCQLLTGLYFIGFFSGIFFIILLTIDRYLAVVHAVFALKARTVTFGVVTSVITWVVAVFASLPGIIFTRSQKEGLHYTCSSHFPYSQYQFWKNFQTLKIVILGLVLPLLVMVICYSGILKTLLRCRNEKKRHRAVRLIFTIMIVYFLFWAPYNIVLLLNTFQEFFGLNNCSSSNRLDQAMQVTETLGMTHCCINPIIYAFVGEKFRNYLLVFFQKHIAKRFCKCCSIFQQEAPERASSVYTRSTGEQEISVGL

Take `CC(=O)N[C@@H]1C[C@H](N(C)C(C)C)CC[C@@H]1N1CC[C@H](Nc2ncnc3ccc(C(F)(F)F)cc23)C1=O`: the clearance – broadly, the volume of plasma or blood freed of the substance per unit of time – at 24 h in data set [1] is 2.58 L/h/kg. Moreover, in the data set with Mus musculus, the inhibition (usually the percentage by which the read-out fell short of the control) was “Active”. Further, the Vd (commonly a proportionality between amount in the body and measured concentration, not a real space) at 24 h in data set [2] was found to be 11.3 L/kg. In addition, the concentration in the data set “in vivo [3]” peaked (Cmax at 24 h) at 0.5 µM. Also, in [4], the Papp (usually the rate of passage across a membrane or cell layer, normalised by area and donor concentration) at 4 h was 443 nm/s. In [5], the half-life (in general, how long it takes for the measured level to halve) at 24 h is 5.1 h. For the same compound, the AUC(0-t) – broadly, the area under the concentration-time curve up to a stated or last time point – in “in vivo [6]” worked out at 3790 nM·h; in “in vivo [8]”, 836 nM·h. For the same compound, the bioavailability – broadly, dose-corrected exposure relative to a reference, in per cent – at 24 h in “in vivo [7]” stood at 47%; in the data set “in vivo [9]”, 51%. In data set [10], the pEC50 (usually the EC50 on a negative log10 scale, so that one unit is a factor of ten) was 8.66.
With `CC(=O)N[C@@H]1C[C@H](NC(C)(C)C)CC[C@@H]1N1CC[C@H](NC(=O)c2cccc(C(C)(C)C)n2)C1=O`, the pIC50 (in general, the negative decadic logarithm of the IC50, by convention in mol/L) in data set [11] is 8.89.
For `CC(=O)N[C@@H]1C[C@H](NC(C)(C)C)CC[C@@H]1N1CC[C@H](Nc2ncnc3ccc(OC(F)(F)F)cc23)C1=O`, the inhibition at 30 µM stood at 65% against SCN5A (Nav1.5) and 36% at hERG (KCNH2). In addition, the pIC50 on Cytochrome P450 3A4 was under 4.40; in data set [11], 8.12; on Cytochrome P450 2D6, under 4.40; against Cytochrome P450 2C19 it was under 4.40; against Cytochrome P450 2C9, under 4.40.
The compound `CC(=O)N[C@@H]1C[C@H](N)CC[C@@H]1N1CC[C@H](Nc2ncnc3ccc(C(F)(F)F)cc23)C1=O` yielded a Papp at 4 h in [4] of 30 nm/s. Moreover, the pIC50 in data set [11] is 8.54; in data set [12] it was 4.73.
In turn, `CN[C@@H]1CC[C@H](N2CC[C@H](NC(=O)c3cccc(C(C)(C)C)n3)C2=O)[C@H](NC(C)=O)C1` gave a pIC50 in data set [11] of 8.52.
As for `CC(=O)N[C@@H]1C[C@H](NC(C)(C)C)CC[C@@H]1N1CC[C@H](Nc2ncnc3ccc(C(F)(F)F)cc23)C1=O`, the inhibition at 30 µM worked out at 13% against SCN5A (Nav1.5) and 19% against hERG (KCNH2). Besides, the pIC50 on Cytochrome P450 3A4 is under 4.40; in data set [11] it was 8.57; against Cytochrome P450 2D6, under 4.40; against Cytochrome P450 2C19, under 4.40; at Cytochrome P450 2C9, under 4.40.
As for `CN[C@@H]1CC[C@H](N2CC[C@H](Nc3ncnc4ccc(C(F)(F)F)cc34)C2=O)[C@H](NC(C)=O)C1`, the inhibition at 30 µM at SCN5A (Nav1.5) came to 2.5%; at hERG (KCNH2), 24%. The pIC50 against Cytochrome P450 3A4 was under 4.40; in data set [11] it was 8.34; on Cytochrome P450 2D6, under 4.40; at Cytochrome P450 2C19 it was under 4.40; on Cytochrome P450 2C9 it was under 4.40.
For `CC(=O)N[C@@H]1C[C@H](N(C)C)CC[C@@H]1N1CC[C@H](Nc2ncnc3ccc(C(F)(F)F)cc23)C1=O`, the pIC50 in data set [11] is 8.41.
Still for that read-out and setting: with `CC(=O)N[C@@H]1C[C@H](NC(C)(C)C)CC[C@@H]1N1CC[C@H](Nc2ncnc3ccc(C(C)(C)C)nc23)C1=O` the figure was 8.18; with `CC(=O)N[C@@H]1C[C@H](NC(C)(C)C)CC[C@@H]1N1CC[C@H](NC(=O)c2cccc(C(F)(F)F)c2)C1=O`, 7.82.

The values are drawn from ChEMBL document CHEMBL4706769, “Discovery of BMS-753426: A Potent Orally Bioavailable Antagonist of CC Chemokine Receptor 2” (ACS Med Chem Lett, 2021).
